In patent publication US10023562B2, “Heteroaryl substituted pyridyl compounds useful as kinase modulators” (BRISTOL-MYERS SQUIBB COMPANY, priority 2012, dated 2018) one finds EC50 and IC50 data, which are given here for 49 molecules.

Usually EC50 stands for the concentration that produces a half-maximal response. A word on the IC50: it is the concentration at which inhibition is half-maximal.

One assay has as its system TLR2 induced IL-6 in peripheral blood mononuclear cells (PBMCs). Briefly: PBMC TLR2 Induced IL-6 Assay. The class given is cell-based. The conditions noted are these: Homo sapiens, PBMC, 5 h, 10 μg/ml lipoteichoic acid for 5 hours, IL-6 by ELISA, values marked * are EC50, read-out: Cell EC50 (values marked *). The protocol:
PBMC TLR2 Induced IL-6 Assay Peripheral blood mononuclear cells (PBMCs) were isolated from human blood containing the anti-coagulant EDTA (2.5 mM) by centrifugation over a FICOLL® gradient. […] At the end of the culture, plates were centrifuged at 1800 rpm for 10 minutes to pellet the cells. Supernatants were harvested and analyzed for IL-6 levels by ELISA (BD Biosciences, San Jose, Calif.).
For the molecule `CC(C)(F)CNc1cc(Nc2ncc(C#N)cc2Cl)ncc1C(=O)NC[C@@H](F)C(C)(C)O` [Example 46], the EC50 came out at 206 nM. Still for that read-out and setting: for `Cn1nnnc1-c1ccc(Nc2cc(Nc3ncc(C#N)cn3)ncc2C(=O)NC[C@@H](F)C(C)(C)O)cc1` [Example 147] the value was 439 nM; for `C[C@@H](CO)Nc1cc(Nc2ncc(C#N)cn2)ncc1C(=O)NC[C@@H](F)C(C)(C)O` [Example 101], 380 nM. With `CC(C)Nc1cc(Nc2ncc(C#N)cc2F)ncc1C(=O)NC1CCC(O)(c2ccnn2C)CC1` (stereo not shown) [Example 166], the EC50 worked out at 202 nM.

For `CC(Nc1cc(Nc2ncc(C#N)cn2)ncc1C(=O)NC[C@@H](F)C(C)(C)O)C1CC1` (stereo partly shown) [Example 163], the EC50 was found to be 459 nM. Turning to `CC(C)Nc1cc(Nc2ncc(C#N)cc2F)ncc1C(=O)N[C@H]1CC[C@H](S(C)(=O)=O)CC1` [Example 33, 6-((5-cyano-3-fluoropyridin-2-yl)amino)-4-(isopropylamino)-N-((1R,4R)-4-(methylsulfonyl)cyclohexyl)nicotinamide], the EC50 was 149 nM. Take `Cc1nc(Nc2cc(NC(C)C)c(C(=O)NC[C@@H](F)C(C)(C)O)cn2)ccc1C#N` [Example 63]: the EC50 amounted to 92 nM.

On to `CC(C)(O)[C@H](F)CNC(=O)c1cnc(Nc2ncc(C#N)c(N)n2)cc1NC1CC1` [Example 154], for which the EC50 came to 529 nM. Regarding `CS(=O)(=O)[C@H]1CC[C@H](NC(=O)c2cnc(Nc3ncc(C#N)cc3Cl)cc2NC2CCOCC2)CC1` [Example 149], the concentration for a half-maximal effect (EC50) was found to be 193 nM. For `CC(C)Nc1cc(Nc2ncc(O)cn2)ncc1C(=O)NC[C@@H](F)C(C)(C)O` [Example 111], the EC50 is 653 nM. As for `CC(C)Nc1cc(Nc2ncc(F)cc2F)ncc1C(=O)NC[C@@H](F)C(C)(C)O` [Example 80], the EC50 was 335 nM.

Turning to `CC(C)(O)[C@H](F)CNC(=O)c1cnc(Nc2ncc(C#N)cc2F)cc1Nc1cccc(S(N)(=O)=O)c1` [Example 128], the EC50 came to 224 nM.

As to `CC(C)Nc1cc(Nc2ncncc2F)ncc1C(=O)NC[C@@H](F)C(C)(C)O` [Example 53], the EC50 turned out to be 517 nM. Turning to `CC(C)(O)[C@H](F)CNC(=O)c1cnc(Nc2ncncc2Cl)cc1NC1CC1` [Example 105], the EC50 turned out to be 336 nM. On to `CC(=O)Nc1nc(Nc2cc(NC(C)C)c(C(=O)NC[C@@H](F)C(C)(C)O)cn2)ncc1C#N` [Example 34], for which the EC50 is 122 nM. On to `CC(C)Nc1cc(Nc2ncc(C#N)cc2F)ncc1C(=O)NC1CCC(O)(c2nccs2)CC1` (stereo not shown) [Example 167], for which the EC50 was 638 nM. With `CS[C@H]1CC[C@H](NC(=O)c2cnc(Nc3ncc(C#N)cc3F)cc2NC(C)C)CC1` [Example 32, 6-((5-cyano-3-fluoropyridin-2-yl)amino)-4-(isopropylamino)-N-((1R,4R)-4-(methylthio)cyclohexyl)nicotinamide], the EC50 stood at 199 nM.

As for `CC(C)Nc1cc(Nc2ncc(C#N)c(NC(C)C)n2)ncc1C(=O)NC[C@@H](F)C(C)(C)O` [Example 40], the EC50 was 161 nM.

Regarding `CC(C)(O)[C@H](F)CNC(=O)c1cnc(Nc2ncc(C#N)cc2F)cc1Nc1cccc(O)c1` [Example 125], the EC50 stood at 85 nM. In the case of `CC(=O)N[C@H]1CC[C@H](NC(=O)c2cnc(Nc3ncc(C#N)cc3Cl)cc2NC2CCOCC2)CC1` [Example 77], the concentration for a half-maximal effect (EC50) amounted to 216 nM. Same read-out and setting: for `CC(C)(O)[C@H](F)CNC(=O)c1cnc(Nc2ncc(C#N)cc2F)cc1NC12CCC(O)(CC1)C2` [Example 133] the value was 85 nM; for `CCC(O)(CC)[C@H](F)CNC(=O)c1cnc(Nc2ncc(C#N)cn2)cc1NC(C)C` [Example 117], 202 nM; for `CC(C)(O)[C@H](F)CNC(=O)c1cnc(Nc2ncncc2F)cc1NC1CC1` [Example 94], 391 nM. `CC(C)(O)[C@H](F)CNC(=O)c1cnc(Nc2ncc(C#N)cc2Cl)cc1N[C@H]1CC[C@](C)(O)CC1` [Example 150]: the EC50 turned out to be 62 nM. Turning to `COc1cnc(Nc2cc(NC3CCC3)c(C(=O)NC[C@@H](F)C(C)(C)O)cn2)nc1` [Example 112], the EC50 stood at 87 nM. As to `COC(=O)Cn1cc(Cl)c(Nc2cc(NC(C)C)c(C(=O)NC[C@@H](F)C(C)(C)O)cn2)n1` [Example 93], the EC50 was 394 nM. Consider `CC(C)(O)[C@H](F)CNC(=O)c1cnc(Nc2ncc(F)cc2F)cc1NC1CCOCC1F` (stereo partly shown) [Example 108], for which the 50% effective concentration (EC50) turned out to be 368 nM. For `CS(=O)(=O)[C@H]1CC[C@H](NC(=O)c2cnc(Nc3ncc(C#N)cc3F)cc2Nc2cccc(C(N)=O)c2)CC1` [Example 161], the EC50 was found to be 303 nM. As for `CC(C)(O)c1cnc(Nc2cc(Nc3ncc(C#N)cc3Cl)ncc2C(=O)NC[C@@H](F)C(C)(C)O)s1` [Example 75], the concentration giving a half-maximal response (EC50) was found to be 54 nM. The same measure, in the same setting: in the case of `CC(C)Nc1cc(Nc2ncc(C#N)cc2Cl)ncc1C(=O)N[C@H]1CC[C@H](O)CC1` [Example 92] it was 269 nM; in that of `COc1cccc(Nc2cc(Nc3ncc(C#N)cc3F)ncc2C(=O)NC[C@@H](F)C(C)(C)O)c1` [Example 130], 89 nM; in that of `COC(C)(C)[C@H](F)CNC(=O)c1cnc(Nc2ncc(C#N)cc2F)cc1NC(C)C` [Example 36], 49 nM.

Still in this assay, the particulars now being: Homo sapiens, PBMC, 5 h, 10 μg/ml lipoteichoic acid for 5 hours, IL-6 by ELISA, values without asterisk, read-out: Cell IC50.
`CC(C)Nc1cc(Nc2ccc(C#N)cn2)ncc1C(=O)N[C@H]1CC[C@H](C(=O)NC2CC2)CC1` [Example 6, 6-((5-cyanopyridin-2-yl)amino)-N-((1R,4R)-4-(cyclopropylcarbamoyl)cyclohexyl)-4-(isopropylamino)nicotinamide]: the IC50 stood at 648 nM.

Consider `CC(C)NC(=O)N[C@H](C)CCNC(=O)c1cnc(Nc2ncc(C#N)cc2F)cc1NC(C)C` [Example 29, (R)-6-((5-cyano-3-fluoropyridin-2-yl)amino)-4-(isopropylamino)-N-(3-(3-isopropylureido)butyl)nicotinamide], for which the IC50 came to 111 nM.

In the case of `CC(C)Nc1cc(Nc2ncc(C#N)cn2)ncc1C(=O)NC[C@@H](F)C(C)(C)O` [Example 22, 6-((5-cyano-2-pyrimidinyl)amino)-N-((2R)-2-fluoro-3-hydroxy-3-methylbutyl)-4-(isopropylamino)nicotinamide], the 50% inhibitory concentration (IC50) amounted to 342 nM. For the molecule `CC(C)(O)[C@H](F)CNC(=O)c1cnc(Nc2ncc(C#N)cc2F)cc1NC1CCOCC1` [Example 49], the IC50 came to 164 nM. In the case of `CC(=O)N[C@H]1CC[C@H](NC(=O)c2cnc(Nc3ncc(C#N)cc3Cl)cc2NC(C)C)CC1` [Example 15, N-((1r,4r)-4-acetamidocyclohexyl)-6-((3-chloro-5-cyanopyridin-2-yl)amino)-4-(isopropylamino)nicotinamide], the IC50 came out at 245 nM. As to `CNC(=O)[C@H]1CC[C@H](NC(=O)c2cnc(Nc3ncc(C#N)cc3F)cc2NC2CC2)CC1` [Example 59], the IC50 was 60 nM. Take `CC(=O)N[C@H]1CC[C@H](NC(=O)c2cnc(Nc3ccc(C#N)cn3)cc2NC(C)C)CC1` [Example 9, N-(trans-4-acetamidocyclohexyl)-6-((5-cyano-2-pyridinyl)amino)-4-(isopropylamino)nicotinamide]: the IC50 worked out at 116 nM.

On to `CC(C)Nc1cc(Nc2ccncn2)ncc1C(=O)NC[C@@H](F)C(C)(C)O` [Example 20, N-((2R)-2-fluoro-3-hydroxy-3-methylbutyl)-4-(isopropylamino)-6-(4-pyrimidinylamino)nicotinamide], for which the IC50 is 647 nM. On to `CC(C)Nc1cc(Nc2ncc(C#N)cc2Cl)ncc1C(=O)NC[C@@H](F)C(C)(C)O` [Example 12, 6-((3-chloro-5-cyano-2-pyridinyl)amino)-N-((2R)-2-fluoro-3-hydroxy-3-methylbutyl)-4-(isopropylamino)nicotinamide], for which the IC50 worked out at 50 nM. With `CC(=O)N[C@H]1CC[C@H](NC(=O)c2cnc(Nc3ccc(C#N)cn3)cc2NC2CCOCC2F)CC1` (stereo partly drawn) [Example 11, N-((1R,4R)-4-acetamidocyclohexyl)-6-((5-cyanopyridin-2-yl)amino)-4-(((3 S,4R)-3-fluorotetrahydro-2H-pyran-4-yl)amino)nicotinamide], the IC50 stood at 320 nM. For `CNC(=O)[C@H]1CC[C@H](NC(=O)c2cnc(Nc3ncc(C#N)cc3Cl)cc2NC2CC2)CC1` [Example 60], the IC50 was 52 nM. With `CNC(=O)[C@H]1CC[C@H](NC(=O)c2cnc(Nc3ncc(C#N)cc3Cl)cc2NC(C)C)CC1` [Example 16, 6-((3-chloro-5-cyanopyridin-2-yl)amino)-4-(isopropylamino)-N—((1r,4r)-4-(methylcarbamoyl)cyclohexyl)nicotinamide], the IC50 worked out at 212 nM.

With `CC(C)Nc1cc(Nc2ncc(C#N)cc2F)ncc1C(=O)NC[C@@H](F)C(C)(C)O` [Example 17, 6-((5-cyano-3-fluoro-2-pyridinyl)amino)-N-((2R)-2-fluoro-3-hydroxy-3-methylbutyl)-4-(isopropylamino)nicotinamide], the half-inhibitory concentration (IC50) was found to be 382 nM. The same measure, in the same setting: for `CC(=O)N[C@H](C)CCNC(=O)c1cnc(Nc2ncc(C#N)cc2Cl)cc1NC(C)C` [Example 28, (R)—N-(3-acetamidobutyl)-6-((3-chloro-5-cyanopyridin-2-yl)amino)-4-(isopropylamino)nicotinamide] the value was 270 nM. Same read-out and setting: in the case of `CC(=O)N1CCC(NC(=O)c2cnc(Nc3ccc(C#N)cn3)cc2NC(C)C)CC1` [Example 8, N-(1-acetyl-4-piperidinyl)-6-((5-cyano-2-pyridinyl)amino)-4-(isopropylamino)nicotinamide] it was 433 nM. Turning to `CC(C)Nc1cc(Nc2ccnc(N3CCC(F)C3)n2)ncc1C(=O)NC[C@@H](F)C(C)(C)O` (stereo partly drawn) [Example 26, N-((2R)-2-fluoro-3-hydroxy-3-methylbutyl)-6-((2-(3-fluoro-1-pyrrolidinyl)-4-pyrimidinyl)amino)-4-(isopropylamino)nicotinamide], the IC50 was determined as 139 nM.

The assay is the same for the next values; noted with them: human PBMC, 10 μg/ml lipoteichoic acid for 5 hours, IL-6 by ELISA; values without asterisk; read-out: Cell IC50.
On to `CC(C)(O)[C@H](F)CNC(=O)c1cnc(Nc2ncc(C#N)cc2F)cc1NC1CCCOC1` (stereo partly shown) [Example 98], for which the IC50 came out at 690 nM.
